Results published in ChEMBL document CHEMBL2417473, “The importance of hydrogen bonding and aromatic stacking to the affinity and efficacy of cannabinoid receptor CB2 antagonist, 5-(4-chloro-3-methylphenyl)-1-[(4-methylphenyl)methyl]-N-[(1S,2S,4R)-1,3,3-trimethylbicyclo[2.2.1]hept-2-yl]-1H-pyrazole-3-carboxamide (SR144528)” (J Med Chem, 2013).

These molecules were tested against Cannabinoid receptor 2 (Homo sapiens, UniProt P34972) (assay: Displacement of [3H]CP-55,940 from human CB2 receptor after 1 hr by competitive binding assay).
Sequence of Cannabinoid receptor 2 (P34972 whole entry): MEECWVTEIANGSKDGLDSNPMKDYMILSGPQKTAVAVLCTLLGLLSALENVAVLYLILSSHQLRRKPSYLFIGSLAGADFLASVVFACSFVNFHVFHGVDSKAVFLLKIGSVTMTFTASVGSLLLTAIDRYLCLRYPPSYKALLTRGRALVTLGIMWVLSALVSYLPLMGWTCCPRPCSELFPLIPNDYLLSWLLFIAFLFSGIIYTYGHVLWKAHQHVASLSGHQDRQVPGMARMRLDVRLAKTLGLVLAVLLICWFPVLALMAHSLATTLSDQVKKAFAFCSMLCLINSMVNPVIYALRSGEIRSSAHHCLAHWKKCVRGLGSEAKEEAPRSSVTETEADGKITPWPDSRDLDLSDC
With `Cc1cc(-c2cc(C(=O)N[C@@H]3C(C)(C)[C@@H]4CC[C@@]3(C)C4)nn2-c2ccccc2)ccc1Cl` the Ki was 94.2 nM.
With `Cc1ccc(Cn2nc(/C=C/[C@@H]3C(C)(C)[C@@H]4CC[C@@]3(C)C4)cc2-c2ccc(Cl)c(C)c2)cc1` (relative stereo) the Ki was 527 nM.
`Cc1ccc(Cn2cc(C(=O)N[C@@H]3C(C)(C)[C@@H]4CC[C@@]3(C)C4)cc2-c2ccc(Cl)c(C)c2)cc1` (relative stereo) showed a Ki of 15.3 nM.
`Cc1ccc(Cn2nc(C(=O)N[C@@H]3C[C@@H]4CC[C@@]3(C)C4(C)C)cc2-c2ccc(Cl)c(C)c2)cc1` gave a Ki of 29.1 nM.
In the case of `Cc1ccc(Cn2cc(/C=C/[C@@H]3C(C)(C)[C@@H]4CC[C@@]3(C)C4)cc2-c2ccc(Cl)c(C)c2)cc1`, the Ki is reported as 1220 nM.
